Results from patent US20150374676A1, “HELICASE-PRIMASE INHIBITORS FOR USE IN A METHOD OF TREATING ALZHEIMER'S DISEASE” (AICURIS GMBH & CO. KG, priority 2013, published 2015).

How the values were obtained:
[1] = fraction unbound in cell culture medium; format: in vitro ADME
[2] = effect of food intake on pharmacokinetics; format: in vivo; details: human blood plasma
From the text: Further, in accordance with the invention the person skilled in the art understands that food intake prior to administration of the crystalline mono mesylate monohydrate salt of N-[5-(aminosulfonyl)-4-methyl-1,3-thiazol-2-yl]-N-methyl-2-[4-(2-pyridinyl)phenyl]-acetamide of a subject may influence positively the in vivo PK/PD profile of the resultant free base of N-[5-(aminosulfonyl)-4-methyl-1,3-thiazol-2-yl]-N-methyl-2-[4-(2-pyridinyl)phenyl]-acetamide. Thus, in accordance with the invention a decreased absorption rate and a delayed tmax of the resultant free base of N-[5-(aminosulfonyl)-4-methyl-1,3-thiazol-2-yl]-N-methyl-2-[4-(2-pyridinyl)phenyl]-acetamide may be expected in […] subjects after administration of crystalline mono mesylate monohydrate salt of N-[5-(aminosulfonyl)-4-methyl-1,3-thiazol-2-yl]-N-methyl-2-[4-(2-pyridinyl)phenyl]-acetamide.

[3] = Multiple-dose escalation, steady state pharmacokinetics in healthy volunteers; format: in vivo, human; details: steady state after once daily single doses for 21 days
[4] = fraction unbound in murine plasma; format: in vitro ADME; details: mouse

fraction unbound [1]: 0.71
t1/2z with food intake prior to administration [2]: remains constant
increase in AUC with food intake prior to administration ([2]; HPLC, worded 'may lead to'): at least 10%
increase in mean Cmax with food intake prior to administration ([2]; HPLC, worded 'may lead to'): at least 25%
t1/2z on average ([3]; 100 mg dosage as free base equivalent): 60 ± 4 h
AUC ([3]; human, plasma, oral, 25 mg dosage as free base equivalent): 23400 ± 3020 ng·h/mL
Cmax ([3]; human, plasma, oral, 25 mg dosage as free base equivalent, read-out: mean maximum blood plasma concentration at steady state (mean Cmax,ss) of the free base): 1360 ± 167 ng/mL
AUC ([3]; human, plasma, oral, 100 mg dosage as free base equivalent): 109000 ± 28600 ng·h/mL
fraction unbound [4]: 0.028
Structure (SMILES): CS(=O)(=O)O.Cc1nc(N(C)C(=O)Cc2ccc(-c3ccccn3)cc2)sc1S(N)(=O)=O [mono mesylate monohydrate salt, N-[5-(aminosulfonyl)-4-methyl-1,3-thiazol-2-yl]-N-methyl-2-[4-(2-pyridinyl)-phenyl]acetamide mono methanesulfonic acid monohydrate]
